Test results reported in PubChem BioAssay AID248 (DTP/NCI, 2004).
Inconclusive results and toxic doses are left out. Rule as the data show it: active = T/C of 150% or more; inactive = T/C below 125%.

Test system: L1210 leukemia ip in BDF1 mice, survival T/C
Test: NCI In Vivo Anticancer Drug Screen. Data for tumor model L1210 Leukemia (intraperitoneal) in B6D2F1 (BDF1) mice
Conditions: endpoint: mean survival time, higher = longer survival
Method in brief: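 Antitumor effect is assessed in tumor-bearing animals. Survival in the compound arm is compared with a vehicle-dosed control arm and expressed as their quotient.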

[1] = dose: 100.0 mg/kg/injection, schedule: Q04DX002 (ip), vehicle: saline with Tween-80
[2] = dose: 200.0 mg/kg/injection, schedule: Q04DX002 (ip), vehicle: saline with Tween-80
[3] = dose: 400.0 mg/kg/injection, schedule: Q04DX002 (ip), vehicle: saline with Tween-80
[4] = dose: 100.0 mg/kg/injection, schedule: Q01DX009 (ip), vehicle: other
[5] = dose: 200.0 mg/kg/injection, schedule: Q01DX009 (ip), vehicle: other
[6] = dose: 50.0 mg/kg/injection, schedule: Q01DX009 (ip), vehicle: other
[7] = dose: 100.0 mg/kg/injection, schedule: Q04DX003 (ip), vehicle: saline with Tween-80
[8] = dose: 100.0 mg/kg/injection, schedule: Q01DX001 (ip), vehicle: carboxymethylcellulose (CMC)
[9] = dose: 200.0 mg/kg/injection, schedule: Q01DX001 (ip), vehicle: carboxymethylcellulose (CMC)
[10] = dose: 400.0 mg/kg/injection, schedule: Q01DX001 (ip), vehicle: carboxymethylcellulose (CMC)

Measured: T/C

CC(C)(C)C(=O)c1ccc(-c2ccccc2)cc1
inactive: dose: 100.0 mg/kg/injection, schedule: Q04DX002 (ip), vehicle: other 91 % of control | dose: 200.0 mg/kg/injection, schedule: Q04DX002 (ip), vehicle: other 94 % of control | dose: 400.0 mg/kg/injection, schedule: Q04DX002 (ip), vehicle: other 94 % of control

O=[N+]([O-])c1cccc(-c2cnc(-c3ccccc3)cc2-c2ccccc2O)c1
inactive: [1] 94 % of control | [2] 94 % of control | [3] 102 % of control

COC(=O)C1C2C=CC(O2)C1C(=O)OC (stereo not drawn)
inactive: dose: 100.0 mg/kg/injection, schedule: Q01DX009 (ip), vehicle: carboxymethylcellulose (CMC) 98 % of control | [4] 101 % of control | dose: 200.0 mg/kg/injection, schedule: Q01DX009 (ip), vehicle: carboxymethylcellulose (CMC) 102 % of control | [5] 102 % of control | dose: 400.0 mg/kg/injection, schedule: Q01DX009 (ip), vehicle: carboxymethylcellulose (CMC) 96 % of control | dose: 400.0 mg/kg/injection, schedule: Q01DX009 (ip), vehicle: other 101 % of control

O=[N+]([O-])c1ccc(C(F)(F)F)cc1
inactive: [6] 104 % of control | [4] 101 % of control

CN(C(=O)C(=O)N(C)S(=O)(=O)c1ccccc1)S(=O)(=O)c1ccccc1
inactive: dose: 100.0 mg/kg/injection, schedule: Q01DX001 (ip), vehicle: Klucel (hydroxypropylcellulose) (HPC) 101 % of control | dose: 200.0 mg/kg/injection, schedule: Q01DX001 (ip), vehicle: Klucel (hydroxypropylcellulose) (HPC) 97 % of control | dose: 400.0 mg/kg/injection, schedule: Q01DX001 (ip), vehicle: Klucel (hydroxypropylcellulose) (HPC) 90 % of control

O=C(C1C2CCC(CC2)C1C(=O)N1CCOCC1)N1CCOCC1 (stereo not drawn)
inactive: dose: 100.0 mg/kg/injection, schedule: Q04DX003 (ip), vehicle: saline 100 % of control | dose: 200.0 mg/kg/injection, schedule: Q04DX003 (ip), vehicle: saline 100 % of control | dose: 400.0 mg/kg/injection, schedule: Q04DX003 (ip), vehicle: saline 103 % of control

O=C(/C=C/c1cccc(Br)c1)c1ccc(Cl)cc1
inactive: [6] 107 % of control | [4] 92 % of control | dose: 100.0 mg/kg/injection, schedule: Q04DX003 (ip), vehicle: other 89 % of control | [5] 96 % of control | dose: 200.0 mg/kg/injection, schedule: Q04DX003 (ip), vehicle: other 100 % of control

O=[N+]([O-])c1ccc(NCc2ccccc2)nc1
inactive: [1] 91 % of control | dose: 111.0 mg/kg/injection, schedule: Q01DX Z (ip), vehicle: carboxymethylcellulose (CMC) 111 % of control | dose: 166.7 mg/kg/injection, schedule: Q01DX Z (ip), vehicle: carboxymethylcellulose (CMC) 98 % of control | [2] 97 % of control | dose: 250.0 mg/kg/injection, schedule: Q01DX Z (ip), vehicle: carboxymethylcellulose (CMC) 101 % of control | dose: 375.0 mg/kg/injection, schedule: Q01DX Z (ip), vehicle: carboxymethylcellulose (CMC) 100 % of control | [3] 103 % of control

O=C(O)/C=C\C(=O)Nc1ccc2c(c1)Cc1cc(Cl)ccc1-2
inactive: [7] 92 % of control | dose: 200.0 mg/kg/injection, schedule: Q04DX003 (ip), vehicle: saline with Tween-80 87 % of control

CCCCS(=O)(=O)C1C2CCC(O2)C1S(=O)(=O)CCCC (stereo not drawn)
inactive: dose: 100.0 mg/kg/injection, schedule: Q04DX002 (ip), vehicle: Klucel (hydroxypropylcellulose) (HPC) 92 % of control | dose: 200.0 mg/kg/injection, schedule: Q04DX002 (ip), vehicle: Klucel (hydroxypropylcellulose) (HPC) 105 % of control | dose: 400.0 mg/kg/injection, schedule: Q04DX002 (ip), vehicle: Klucel (hydroxypropylcellulose) (HPC) 101 % of control

COc1ccc(C(=O)NC2CCC2)cc1
inactive: dose: 25.0 mg/kg/injection, schedule: Q01DX009 (ip), vehicle: saline 100 % of control | dose: 50.0 mg/kg/injection, schedule: Q01DX009 (ip), vehicle: saline 108 % of control | dose: 100.0 mg/kg/injection, schedule: Q01DX009 (ip), vehicle: saline 100 % of control

NCC(O)C(F)(F)C(F)(F)C(F)(F)F (stereo not drawn)
inactive: [8] 103 % of control | [9] 103 % of control | [10] 95 % of control

CC1(C)CCC(CC(=O)O)(CC(=O)O)CC1
inactive: [7] 95 % of control | dose: 400.0 mg/kg/injection, schedule: Q04DX003 (ip), vehicle: saline with Tween-80 92 % of control

CC(C)CCC[C@@H](C)[C@H]1CC[C@H]2[C@@H]3CC=C4C[C@@H](Cl)CC[C@]4(C)[C@H]3CC[C@]12C
inactive: dose: 100.0 mg/kg/injection, schedule: Q01DX009 (sc), vehicle: Klucel (hydroxypropylcellulose) (HPC) 110 % of control | dose: 200.0 mg/kg/injection, schedule: Q01DX009 (sc), vehicle: Klucel (hydroxypropylcellulose) (HPC) 101 % of control | dose: 400.0 mg/kg/injection, schedule: Q01DX009 (sc), vehicle: Klucel (hydroxypropylcellulose) (HPC) 114 % of control

COc1cccc(NC(=O)Nc2cccc(Cl)c2)c1
inactive: dose: 100.0 mg/kg/injection, schedule: Q01DX009 (ip), vehicle: Klucel (hydroxypropylcellulose) (HPC) 94 % of control | dose: 400.0 mg/kg/injection, schedule: Q01DX009 (ip), vehicle: Klucel (hydroxypropylcellulose) (HPC) 95 % of control

CCCCCCNC1=C(c2ccccc2)C(=O)C(NCCCCCC)=C(c2ccccc2)C1=O
inactive: [8] 88 % of control | [9] 94 % of control | [10] 96 % of control
